Assays:
[1] = test system: SARS2-S pseudotyped VSV, Omicron BA.2
[2] = test system: SARS2-S pseudotyped VSV, Omicron BA.1
[3] = test system: SARS2-S pseudotyped VSV, Delta
[4] = test system: SARS2-S pseudotyped VSV, Beta
[5] = test system: SARS2-S pseudotyped VSV, Alpha
[6] = target: SARS-CoV-2 spike protein (Severe acute respiratory syndrome coronavirus 2, UniProt P0DTC2); format: binding; parameters: key: Results labeled “−” represent decreased binding; Results labeled “0” represent substantially similar binding; Results labeled “1” represent the original sequence; Results labeled “+” represent about 105-200% binding; Results labeled “++” represent about 200-300% binding; Results labeled “+++” represent about 300-500% binding; Results labeled “++++” represent over about 500% binding
[7] = test system: omicron variant; settings: cited from earlier work

| Molecule | binding standardized to SEQ ID NO: 1 [6] | also measured |
| --- | --- | --- |
| CC[C@H](C)[C@@H]1NC(=O)[C@H](CCC(N)=O)NC(=O)[C@H](CCC(=O)O)NC(=O)[C@H](CCCNC(=N)N)NC(=O)[C@@H]2CCCN2C(=O)[C@H](CCCNC(=N)N)NC(=O)[C@H](CCCNC(=N)N)NC(=O)[C@H](Cc2ccc(O)cc2)NC(=O)CSC[C@@H](C(=O)NCC(N)=O)NC(=O)[C@H](Cc2ccccc2)NC(=O)[C@H](C(C)C)NC(=O)[C@H](Cc2c[nH]c3ccccc23)NC(=O)[C@H](CC(C)C)NC(=O)[C@H](CO)NC(=O)CNC(=O)[C@H]([C@@H](C)CC)NC(=O)[C@H]([C@@H](C)CC)NC1=O [Compound S1b3inL1] |  | IC50 [1]: 3.5 µM; IC50 [2]: 5.2 µM; IC50 [3]: 3.5 µM; IC50 [4]: 5.2 µM; IC50 [5]: 2.6 µM |
| ARPREQIIIGSLWVF [SEQ ID NO: 16] | − |  |
| RAPREQIIIGSLWVF [SEQ ID NO: 17] | − |  |
| RRPAEQIIIGSLWVF [SEQ ID NO: 19] | 0 |  |
| RRPREQAIIGSLWVF [SEQ ID NO: 22] | − |  |
| RRPREQIAIGSLWVF [SEQ ID NO: 23] | − |  |
| RRPREQIIAGSLWVF [SEQ ID NO: 24] | − |  |
| RRPREQIIIASLWVF [SEQ ID NO: 25] | − |  |
| RRPREQIIIGALWVF [SEQ ID NO: 26] | − |  |
| RRPREQIIIGSAWVF [SEQ ID NO: 27] | − |  |
| RRPREQIIIGSLAVF [SEQ ID NO: 28] | − |  |
| RRPREQIIIGSLWVF [Compound S1b3inL1] | 1 |  |
| Sotrovimab |  | fold loss in potency / decrease in activity against omicron [7]: 3 fold |
